Experimental findings from patent publication US4590178A (Ajinomoto Company, Incorporated, priority 1982, dated 1986) are described below.

In this experiment the test system is spontaneously hypertensive rats. The experiment is described as follows: Antihypertensive activity: systolic blood pressure measured indirectly on conscious SHR after peroral dosing. It counts as in vivo, rat. The note with it: for Systolic Blood Pressure, Pretreatment: SHR (male, 13 months, 2 per sample), before 35 mg/kg peroral single dose; for Systolic Blood Pressure, 4 hrs after administration / Δ Blood Pressure: SHR; for Systolic Blood Pressure, 4 hrs after administration: 4 hours after 35 mg/kg peroral single dose; for Δ Blood Pressure: 4 hours after 35 mg/kg peroral single dose versus pretreatment. As for the experimental part:
The antihypertensive activity of part of the amino acid derivatives prepared above, was determined.
As subject animals 2 SHR were used which had been trained enough and been confirmed to be hypertensive spontaneously hypertensive rats (male, 13 months of age, the body weight of 400 to 440 g) per sample.
As an instrument for measuring the blood pressure a Programmed Electro-Sphygmomanometer PE-300 (Narco Co., U.S.A.) was used, and the blood pressure was indirectly measured on conscious rats.
An aqueous solution or suspension of a sample (35 mg/kg) was once force-fed into the stomach by means of a peroral probe.
An antihypertensive activity of part of the amino acid derivatives prepared above was determined.
As subject animals there were used 2 SHR which had been trained enough and been confirmed to be hypertensive spontaneously hypertensive rats (male, 13 months of age, the body weight of 400~440 g) per sample.
As an instrument for measuring the blood pressure there was used Programmed Electro-Sphygmomanometer PE-300 (Narco Co., U.S.A.), and the blood pressure was indirectly measured on conscious rats.
An antihypertensive activity of the product prepared above was determined.

Regarding `C[C@H](NP(=O)([O-])CCc1ccccc1)C(=O)N1CCC[C@H]1C(=O)N1CCC[C@H]1C(=O)[O-].[Na+].[Na+]` [Example 28, N-phenethylphosphonyl-L-alanyl-L-prolyl-L-proline 2 sodium salt], the “Systolic Blood Pressure, Pretreatment” value was determined as 183 mm Hg; the “Systolic Blood Pressure, 4 hrs after administration” value (“Systolic Blood Pressure, 4 hrs” below) stood at 151 mm Hg; the “Δ Blood Pressure” value is reported as -32 mm Hg.
On to `CCOP(=O)(CCc1ccccc1)N[C@@H](CCSC)C(=O)N1CCC[C@H]1C(=O)N1CCC[C@H]1C(=O)O.NC(N)=NCCC[C@H](N)C(=O)O` (stereo partly drawn) [Example 40, N--(O--ethyl-P--phenethylphosphonyl)-L-methionyl-L-prolyl-L-proline L-arginine salt], for which the “Systolic Blood Pressure, Pretreatment” value came out at 196 mm Hg; the “Systolic Blood Pressure, 4 hrs” value stood at 166 mm Hg; the “Δ Blood Pressure” value is listed as -30 mm Hg.
`CSCC[C@H](NP(=O)(CCc1ccccc1)OCc1ccccc1)C(=O)N1CCC[C@H]1C(=O)N1CCC[C@H]1C(=O)O.NC(N)=NCCC[C@H](N)C(=O)O` (stereo partly drawn) [Example 35, N-(O-Benzyl-P-phenethylphosphonyl)-L-methionyl-L-prolyl-L-proline L-arginine salt]: the “Systolic Blood Pressure, Pretreatment” value was determined as 191 mm Hg; the “Systolic Blood Pressure, 4 hrs” value was determined as 158 mm Hg; the “Δ Blood Pressure” value was -33 mm Hg.
The corresponding values for `C[C@H](NP(=O)(OCc1ccccc1)OCc1ccccc1)C(=O)N1CCC[C@H]1C(=O)N[C@@H](Cc1ccccc1)C(=O)O.N=C(N)NCCC[C@H](N)C(=O)O` [Example 5, Dibenzylphosphoryl-L-alanyl-L-prolyl-L-phenylalanyl L-arginine salt] are 188 mm Hg, 173 mm Hg and -15 mm Hg.
Regarding `C[C@H](NP(=O)(CCc1ccccc1)OCc1ccccc1)C(=O)N(CC(=O)N1CCC[C@H]1C(=O)O)C1Cc2ccccc2C1.NC(N)=NCCC[C@H](N)C(=O)O` (stereo partly drawn) [Example 30, N-(O-Benzyl-P-phenethylphosphonyl)-L-alanyl-N-(2-indanyl)glycyl-L-proline L-arginine salt], the “Systolic Blood Pressure, Pretreatment” value came out at 184 mm Hg; the “Systolic Blood Pressure, 4 hrs” value is on record as 154 mm Hg; the “Δ Blood Pressure” value was -30 mm Hg.
In the same order, the values of “Dibenzylphosphoryl-L-alanyl-L-prolyl-D-alanine L-arginine salt [Example 14]” are 183 mm Hg, 161 mm Hg and -22 mm Hg.
The corresponding values for “Dibenzylphosphoryl-L-isoleucyl-L-prolyl-L-proline L-arginine salt [Example 18]” are 192 mm Hg, 171 mm Hg and -21 mm Hg.
In the same order, the values of `C[C@H](NP(=O)(OCc1ccccc1)OCc1ccccc1)C(=O)N1CCC[C@H]1C(=O)N1CCC[C@H]1C(=O)[O-].[K+]` [Example 32, Dibenzylphosporyl-L-alanyl-L-propyl-L-Proline potassium salt] are 185 mm Hg, 160 mm Hg and -25 mm Hg.
Regarding “Dibenzylphoshoryl-L-alanyl-L-prolyl-L-alanine L-arginine salt [Example 12]”, the “Systolic Blood Pressure, Pretreatment” value was found to be 193 mm Hg; the “Systolic Blood Pressure, 4 hrs” value is reported as 182 mm Hg; the “Δ Blood Pressure” value was -11 mm Hg.
In the same order, the values of “N-Phenethylphosphonyl-L-methionyl-L-prolyl-L-proline 2 sodium salt [Example 34]” are 183 mm Hg, 154 mm Hg and -29 mm Hg.
The corresponding values for “Dibenzylphosphoryl-L-alanyl-L-prolyl-L-aspartic acid L-arginine salt [Example 3]” are 208 mm Hg, 197 mm Hg and -11 mm Hg.
The corresponding values for “Diethylphosphoryl-L-methionyl-L-prolyl-L-proline L-argine salt [Example 44]” are 189 mm Hg, 179 mm Hg and -10 mm Hg.
For `O=C(O)CC[C@H](NP(=O)(OCc1ccccc1)OCc1ccccc1)C(=O)N1CCC[C@H]1C(=O)N1CCC[C@H]1C(=O)O` [Example 22, Dibenzylphosphoryl-L-glutamyl-L-propyl-L-proline], the “Systolic Blood Pressure, Pretreatment” value was 206 mm Hg; the “Systolic Blood Pressure, 4 hrs” value was 196 mm Hg; the “Δ Blood Pressure” value was -10 mm Hg.
For the compound `COC(=O)[C@@H]1CCCN1C(=O)[C@@H]1CCCN1C(=O)[C@H](C)NP(=O)([O-])CCc1ccccc1.[Na+]` [Example 80, N-Phenethylphosphonyl-L-alanyl-L-prolyl-L-proline methylester sodium salt], the “Systolic Blood Pressure, Pretreatment” value is 193 mm Hg; the “Systolic Blood Pressure, 4 hrs” value amounted to 183 mm Hg; the “Δ Blood Pressure” value is recorded as -10 mm Hg.
`C[C@H](NP(=O)(OCc1ccccc1)OCc1ccccc1)C(=O)N1C[C@H](O)C[C@H]1C(=O)N1CCC[C@H]1C(=O)O` (relative stereo) [Example 17, Dibenzylphosphoryl-L-alanyl-trans-L-hydroxyprolyl-L-proline]: the “Systolic Blood Pressure, Pretreatment” value came to 182 mm Hg; the “Systolic Blood Pressure, 4 hrs” value is given as 163 mm Hg; the “Δ Blood Pressure” value is on record as -19 mm Hg.
On to `CCCCCP(=O)(O)N[C@@H](C)C(=O)N1CCC[C@H]1C(=O)N1CCC[C@H]1C(=O)[O-].CCCCCP(=O)(O)N[C@@H](C)C(=O)N1CCC[C@H]1C(=O)N1CCC[C@H]1C(=O)[O-].[Na+].[Na+]` [Example 38, N-n-Amylphosphonyl-L-alanyl-L-prolyl-L-proline 2 sodium salt], for which the “Systolic Blood Pressure, Pretreatment” value was 187 mm Hg; the “Systolic Blood Pressure, 4 hrs” value is 167 mm Hg; the “Δ Blood Pressure” value was -20 mm Hg.
In the same order, the values of “Dibenzylphosphoryl-L-alanyl-N-(2-indanyl)-glycyl-L-proline L-arginine salt [Example 31]” are 199 mm Hg, 169 mm Hg and -30 mm Hg.
The corresponding values for “Diethylphosphoryl-L-lysyl-L-prolyl-L-proline calcium salt [Example 56]” are 204 mm Hg, 181 mm Hg and -23 mm Hg.
In the same order, the values of “Dibenzylphosphoryl-L-prolyl-L-tyrosine L-arginine salt [Example 4]” are 207 mm Hg, 195 mm Hg and -12 mm Hg.
